Square brackets hold non-standard residues; d marks the D form. Peptide text beside a SMILES is read from it. * marks the point of attachment. PhAc = O=C(Cc1ccccc1)*
Tested on: rabbit cardiac allograft coronary arteries
Assay: Rabbit cardiac allograft model; as to Expression on Coronary Arteries: ICAM-1: key: -: negative; ±: minimal; +: little; ++: moderately abundant; +++: very abundant; as to Expression on Coronary Arteries: Macrophages: key: -: negative; ±: minimal; +: little; ++: moderately abundant; +++: very abundant; as to Expression on Coronary Arteries: T cells: key: -: negative; ±: minimal; +: little; ++: moderately abundant; +++: very abundant; as to Expression on Coronary Arteries: Total Fibronectin: key: -: negative; ±: minimal; +: little; ++: moderately abundant; +++: very abundant
Type: in vivo
Excerpt: New Zealand white rabbit SPF hearts were allografted into the necks of similar rabbits to assay a graft-vs-host immunorejection model and the affect of a contemplated compound on that immunoinflammatory response.
Experimental animal model New Zealand white female rabbits (Charles River Lab., Saint Laurent, Quebec), between 3.5 and 4 kg underwent heterotopic cardiac transplant following an experimental protocol previously described [Alonso et al., Am. J. Pathol., 87:415-442 (1977); Clausell et al., Circulation, 89:2768-2779 (1994)]. The animals were unselected to favor an HLA-mismatch, the host rabbits were Pasteurella-free and the donors, outbred animals. Both host and donor rabbits were fed Purina 5321-0.5 percent cholesterol diet (Research Diets Inc., New Brunswick, N.J.), a strategy that has proven useful in accelerating the process of allograft arteriopathy [Alonso et al., Am. J. Pathol., 87:415-442 (1977)]. The diet was commenced four days prior to the transplant and continued in the recipient of the transplant until the completion of the experimental period.
The technique of heterotopic cardiac transplantation has been previously described [Clausell et al., Circulation, 89:2768-2779 (1994)]. Briefly, a vertical incision was performed in the anterior aspect of the neck of the recipient rabbit and the left common carotid artery and the ipsilateral external jugular vein were isolated. The cardiac allograft was placed in the neck by anastomosing the aorta end-to-side to the recipient's carotid artery and the pulmonary end-to-side to the recipient's external jugular vein, following a total period of ischemia for the donor hearts of approximately 30 minutes. Postoperative care was in compliance with the Principles of Laboratory Animal Care formulated by the Canadian National Society for Medical Research.
Beginning the day of the transplant, the animals were randomized and treated with either scrambled compound (control group) at 1 mg/kg s.c. or the inhibitor compound at 1 mg/kg s.c. The doses of the compounds were empirically extrapolated to the in vivo model based on preliminary in vitro studies, of Table 1. No other immunosuppression therapy was administered. The grafts were monitored daily by palpation and maintained for 7 to 8 days, a previously described endpoint that was associated with myocardial rejection (impaired cardiac contractility) and development of the allograft arteriopathy in this model [Clausell et al., Circulation, 89:2768-2779 (1994)]. A total of fourteen animals were studied in the control (n=7) and treated (n=7) groups.
Preparation of the hearts The animals were sacrificed using a lethal dose of euthanol (480 mg i.v.) (MTC Pharmaceutical, Cambridge, Oreg.), host and donor hearts were removed, and the coronary arteries were perfused with saline through the aorta, followed by light fixation by perfusion with 2 percent paraformaldehyde (Sigma, St, Louis, Mo.). […] Different sections of the hearts were either saved in 10 percent formalin (BDH Inc., Toronto, ON) for light microscopy studies or immediately frozen in O.T.C. Compound Tissue Tek (Miles Inc., Elkart, In.) for specific immunohistochemistry studies.
Three different paraffin-embedded tissue sections from host and donor hearts from both control and treated rabbits were stained by the Movat pentachrome method for light microscopy. Morphometric analysis was performed using a Zeiss microscope attached to a computer-generated video analysis system (Perceptics Inc., NuVision software), as described in Clausell et al., Circulation, 89:2768-2779 (1994). The number of vessels with intimal lesions were counted in all three heart sections from each animal studied and are expressed as a percentage of the total vessel number.
In the host hearts, 999 vessels in the control group and 1054 vessels in the treated group were analyzed. In the donor hearts, 827 vessels in the control group and 617 vessels in the treated group were analyzed. […]

Question: Which “Expression on Coronary Arteries: ICAM-1” value (1 mg/kg s.c., 7 to 8 days) does the source give for `CC(C)C[C@H](NC(=O)[C@H](CC(=O)O)NC(=O)Cc1ccccc1)C(=O)N[C@@H](Cc1ccccc1)C(=O)N1CCC[C@@H]1C(N)=O` [Compound ID No. 1066.02, N-phenylacetyl-Asp-Leu-Phe-D-Pro-NH2, reference compound] (PhAc-DLF[dP]-NH2) here?
Answer: Its value is “+”.

Question: And the “Expression on Coronary Arteries: Macrophages” value (1 mg/kg s.c., 7 to 8 days)?
Answer: The value was “+”.

Question: What about the “Expression on Coronary Arteries: T cells” value (1 mg/kg s.c., 7 to 8 days) of the same compound?
Answer: The value was “++”.

Question: What about the “Expression on Coronary Arteries: Total Fibronectin” value (1 mg/kg s.c., 7 to 8 days) of the same compound?
Answer: The value was “++”.

Question: And the “Expression on Coronary Arteries: VCAM-1” value (1 mg/kg s.c., 7 to 8 days)?
Answer: Its value is “+”.

Question: And the “Expression on Coronary Arteries: MHC Class II” value (1 mg/kg s.c., 7 to 8 days, immunoperoxidase score)?
Answer: Its value is “++”.

Question: And the “Vessel Intimal Thickening: Percent of Vessels” value (donor hearts, 1 mg/kg s.c.)?
Answer: Its value is 88%.

Question: And the “Vessel Intimal Thickening: Severity (Percent of Vessel area)” value (donor hearts, 1 mg/kg s.c.)?
Answer: The value was 36%.

Question: And the “Baseline (rabbit own host heart) of incidence” value (host heart)?
Answer: The value was 1%.

Question: And the “Baseline (rabbit own host heart) of severity” value (host heart)?
Answer: Its value is 12%.

Reference: patent US5770573A, “CS-1 peptidomimetics, compositions and methods of using the same” (Cytel Corporation, priority 1995, dated 1998)
